Measured values as given in patent US20250205168A1, “METHOD FOR PRODUCING NUCLEIC ACID-ENCAPSULATED LIPID NANOPARTICLES, METHOD FOR PRODUCING PHARMACEUTICAL COMPOSITION CONTAINING SAID LIPID NANOPARTICLES, AND METHOD FOR INTRODUCING NUCLEIC ACID INTO CELL OR TARGET CELL” (NOF Corporation, priority 2022, published 2025).
Entries after “also recorded” stand apart in the source; their conditions may differ.

Key:
[1] = mRNA encapsulation rate (Ribogreen assay); format: physicochemical; details: 37° C. 5 min
Description: The particle size, polydispersity index (PdI), and mRNA encapsulation rate of the obtained nucleic acid-encapsulated nanoparticles were analyzed. The particle size and PdI were measured by the dynamic light scattering method using a Zetasizer (registered trademark). The mRNA encapsulation rate was measured by the Ribogreen (registered trademark) assay. […]
The particle size, polydispersity index (PdI), and mRNA encapsulation rate of the obtained nucleic acid-encapsulated nanoparticles were analyzed. The particle size and PdI were measured by the dynamic light scattering method using a Zetasizer (registered trademark). The mRNA encapsulation rate was measured by the Ribogreen (registered trademark) assay. As a result, mRNA was encapsulated at any incubation temperature, and no difference in the encapsulation rate was observed. The particle size of the obtained nucleic acid-encapsulated nanoparticles tended to increase with increasing incubation temperature (see FIG. 24 and FIG. 25).
The particle size, polydispersity index (PdI), and mRNA encapsulation rate of the obtained nucleic acid-encapsulated nanoparticles were analyzed. The particle size and PdI were measured by the dynamic light scattering method using a Zetasizer (registered trademark). The mRNA encapsulation rate was measured by the Ribogreen (registered trademark) assay. As a result, the encapsulation rate of mRNA tended to decrease with increasing salt concentration of the buffer (see FIG. 34 and FIG. 35).
The particle size, polydispersity index (PdI), and mRNA encapsulation rate of the obtained nucleic acid-encapsulated nanoparticles were analyzed. The particle size and PdI were measured by the dynamic light scattering method using a Zetasizer (registered trademark). The mRNA encapsulation rate was measured by the Ribogreen (registered trademark) assay. As a result, mRNA was encapsulated (see Table 5).
The particle size, polydispersity index (PdI), and mRNA encapsulation rate of the obtained nucleic acid-encapsulated nanoparticles or nucleic acid-encapsulated nanoparticles prepared by freeze-dry technique in Comparative Example 1 were analyzed. The particle size and PdI were measured by the dynamic light scattering method using a Zetasizer (registered trademark). The mRNA encapsulation rate was measured by the Ribogreen (registered trademark) assay. […] In addition, the particle size of the nucleic acid-encapsulated nanoparticles was smaller than that of nucleic acid-encapsulated nanoparticles produced by the freeze-dry technique (see FIG. 14 and FIG. 15).
The particle size, polydispersity index (PdI), and mRNA encapsulation rate of the obtained nucleic acid-encapsulated nanoparticles or nucleic acid-encapsulated nanoparticles prepared by freeze-dry technique in Comparative Example 2, Comparative Example 3 were analyzed. The particle size and PdI were measured by the dynamic light scattering method using a Zetasizer (registered trademark). The mRNA encapsulation rate was measured by the Ribogreen (registered trademark) assay. […] In addition, the particle size of the nucleic acid-encapsulated nanoparticles was smaller than that of nucleic acid-encapsulated nanoparticles produced by the freeze-dry technique (see FIG. 36 and FIG. 37). In FIG. 36, FIG. 37 and FIG. 38, Comparative Example 2 in which the total flow rate during preparation of lipid nanoparticles was 1 mL/min, is shown as “freeze-dry (FR=1)”, and Comparative Example 3, in which the total flow rate was 16 mL/min, is shown as “freeze-dry (FR=16)”.
The particle size, polydispersity index (PdI), and mRNA encapsulation rate of the obtained nucleic acid-encapsulated nanoparticles (liquid) or nucleic acid-encapsulated nanoparticles produced using a microfluidic channel (MF) (LNP prepared with the same lipid composition and using MES buffer (20 mM, pH 6.5) containing nucleic acid and an ethanol solution of lipid) were analyzed. […]

[2] = Zeta potential by electrophoretic light scattering (Zetasizer); format: physicochemical; details: Example 10; particles produced using SS-OP at pH and pH 5.5 compared to pH 6, pH 6.5 and pH 7; measured in MES pH 5-7
Description: Among the obtained nucleic acid-encapsulated nanoparticles, the particles produced using SS-OP were analyzed for Zeta potential. Zeta potential was measured by the electrophoretic light scattering method using Zetasizer (registered trademark) and using MES buffer (pH 5, pH 5.5, pH 6, pH 6.5 or pH 7).

HeLa cells = test: nucleic acid introduction into HeLa cells, luciferase luminescence (Steady-Glo, GloMax 20/20 luminometer); format: cell-based; details: Example 10, particles produced using SS-OP, after 13 hr
Description: The nucleic acid-encapsulated nanoparticles obtained were applied to HeLa cells to evaluate the nucleic acid introduction efficiency. HeLa cells were seeded in D-MEM medium (high glucose) (containing L-glutamine and phenol red) (containing 10% FBS and 1% penicillin-streptomycin solution added) at 5×10^3 cells/100 μL in a 96-well flat-bottom transparent plate. The obtained nucleic acid-encapsulated particles were added such that the nucleic acid concentration in the medium was 0.02 μg/4 μL. After 16 hr, the amount of luciferase protein introduced was evaluated using the amount of luminescence. 100 μL of Steady-Glo (registered trademark) was added, and the cells were lysed by shaking for 5 min, and the amount of luminescence was quantified using a GloMax 20/20 luminometer. As a result, the introduction of luciferase protein was confirmed at any incubation temperatures, and no difference in in vitro activity was observed.
The nucleic acid-encapsulated nanoparticles obtained were applied to HeLa cells and the nucleic acid introduction efficiency was evaluated. […] After 13 hr, the amount of luciferase protein introduced was evaluated using the amount of luminescence. 100. μL of Steady-Glo (registered trademark) was added, and the cells were lysed by shaking for 5 min, and the amount of luminescence was quantified using a GloMax 20/20 luminometer. […]

[3] = Example 4, LNP in MES pH 5, 5.5, 6, 6.5 or 7, mRNA 1.5 μg/135 μL
[4] = Example 10, LNP and mRNA (3 μg/135 μL) in MES pH 5, 5.5, 6, 6.5 or 7

Row | encapsulation rate at higher pH, in words [1, 3] | encapsulation rate at higher pH, in words [1, 4] | Zeta potential, in words [2] | SMILES | in vitro activity (luciferase luminescence) by pH of production, in words (HeLa cells)
1 | decreased at pH 6, pH 6.5, and pH 7 | decreased at pH 6.5 and pH 7 |  | CCCCCCCC/C=C\CCCCCCCC(=O)OCC(CN(C)C)OC(=O)CCCCCCC/C=C\CCCCCCCC (stereo not shown) [DODAP, 1,2-dioleoyloxy-3-dimethylaminopropane, reference compound] | 
2 | decreased at pH 6.5 and pH 7 | decreased at pH 6.5 and pH 7 |  | CCCCCC=CCC=CCCCCCCCCC(CCCCCCCCC=CCC=CCCCCC)OC(=O)CCCN(C)C (stereo not shown) [MC3, heptatriaconta-6,9,28,31-tetraen-19-yl-4-(dimethylamino)butanoate, reference compound] | 
3 | decreased at pH 6, pH 6.5, and pH 7 | decreased at pH 6.5 and pH 7 |  | CCCCCCCC/C=C\CCCCCCCC(=O)OCCC1CCN(CCSCSCCN2CCC(CCOC(=O)CCCCCCC/C=C\CCCCCCCC)CC2)CC1 [SS-OC] | 
4 | decreased at pH 6.5 and pH 7 | decreased at pH 6.5 and pH 7 | higher values in a low pH environment | CCCCCCCC/C=C\CCCCCCCC(=O)Oc1ccc(CC(=O)OCCC2CCN(CCSSCCN3CCC(CCOC(=O)Cc4ccc(OC(=O)CCCCCCC/C=C\CCCCCCCC)cc4)CC3)CC2)cc1 [SS-OP] | highest in vitro activity was observed at pH 6; also recorded: slightly decreasing at pH 6.5; also recorded: low activity was observed at pH 5, pH 5.5, and pH 7
